Earlier results on 3 molecules are cited in PMC4168221 (Clinical Drug Investigation, 2014).

Data set [1] concerns urinary glucose excretion. As to conditions: cited from earlier work.
For data set [2] the following is noted: cited from earlier work.

Regarding `OC[C@H]1O[C@@H](c2ccc(F)c(Cc3cc4ccccc4s3)c2)[C@H](O)[C@@H](O)[C@@H]1O` [Ipragliflozin], the “UGE in each estimated GFR (eGFR) class” value in data set [1] is on record as “significantly increased”.
As to `CCOc1ccc(Cc2cc([C@@H]3O[C@H](CO)[C@@H](O)[C@H](O)[C@H]3O)ccc2Cl)cc1` [dapagliflozin], the “C max and AUC as a function of renal function” value in data set [2] was “increased incrementally with declining renal function”.
Consider `OC[C@H]1O[C@@H](c2ccc(Cl)c(Cc3ccc(O[C@H]4CCOC4)cc3)c2)[C@H](O)[C@@H](O)[C@@H]1O` [empagliflozin], for which, in data set [2], the “CLR in patients with moderate renal impairment” value was “decreased” and the “systemic exposure in patients with moderate renal impairment” value is “moderately increased”.
